Reference: US20080248134A1, “Oral compositions, use and combinations of N-[2-(dimethylamino)ethyl]-2,6 dimethyl-1-oxo-1,2-dihydrobenzo[b]-1,6-naphthyridine-4-carboxamide and closely related analogues thereof” (Auckland Uniservices Limited, priority 2005, published 2008)
“Also recorded” adds a separate entry of the source.

Legend:
HCT116p53+ = test: In vitro cell proliferation assay, continuous drug exposure; type: cell-based; conditions: Homo sapiens, continuous drug exposure 3-5 days
Text: (§1) The results with the JLA and JLD lines, which have reduced topoisomerase II content as compared to the parental Jurkat line, indicate that the IC50 value of the compound is increased with decreased topoisomerase content. This is also the case for etoposide, amsacrine, DACA and doxorubicin.

HCT116p53− = test: as above; type: cell-based; conditions: Homo sapiens, continuous drug exposure 3-5 days
Text: as §1

JLD [1] = test: as above; type: cell-based; conditions: Homo sapiens; JLD (reduced topoisomerase II), continuous drug exposure 3-5 days
Text: as §1

Jurkat = test: as above; type: cell-based; conditions: Homo sapiens, continuous drug exposure 3-5 days
Text: as §1

JLA = test: In vitro cell survival assay; type: cell-based, human; conditions: resistant line JLA, 0.4 μM, one hour exposure
Method: (§2) Two HCT116 human colon carcinoma lines, one with TP53 wild type status and one with TP53 mutant status, were exposed to the compound of Formula II for 6 hours. The cells were washed free of drug and surviving cells were measured by clonogenic assay. The concentration for maximal reduction of cell survival was 1% for p53 wild-type cells and 5% for p53 mutant cells. The cytotoxicity of the compound of the present invention was also tested in three Jurkat leukaemia lines, two of which, JLA and JLD, are resistant to topoisomerase inhibitors because of low cellular levels of topoisomerase II.

JLD [2] = test: In vitro cell survival assay; type: cell-based, human; conditions: resistant line JLD, 0.4 μM, one hour exposure
Method: as §2

wild-type Jurkat line = test: In vitro cell survival assay; type: cell-based, human; conditions: 0.4 μM, one hour exposure
Method: as §2

colon 38 tumours = test: Murine colon 38 tumour response; type: in vivo; conditions: single oral dose (8.9 mg/kg)
Text: The murine colon-38 carcinoma is a transplantable tumour that has been used extensively in drug development programmes to determine the activity of many different drugs (Goldin A et al. Current results of the screening program at the Division of Cancer Treatment, National Cancer Institute. European Journal of Cancer. 1981. 17(2):129-142). The tumour is implanted subcutaneously as 1-mm^3 fragments and allowed to grow (8 days) to a tumour of approximately 3 mm in diameter before administration of test drugs.

For `Cc1cccc2cc3c(=O)n(C)cc(C(=O)NCCN(C)C)c3nc12` [Formula II, N-[2-(dimethylamino)ethyl]-2,6 dimethyl-1-oxo-1,2-dihydrobenzo[b]-1,6-naphthyridine-4-carboxamide], the IC50 (HCT116p53+) was 8.6 nM, the IC50 (HCT116p53−) was 11 nM and the IC50 (JLD [1]) was 53 nM. It also gave an IC50 (Jurkat) of 6.7 nM, a survival (JLA) of 100% and a survival (JLD [2]) of 100%. For the same compound, the survival (wild-type Jurkat line) was 28% and the “response of colon 38 tumours” value (colon 38 tumours) was “complete regression; also recorded: single dose cures”.
